Experimental data reported in patent US20060281807A1, “Quassinoid compositions for the treatment of cancer and other proliferative diseases” (Tapestry Pharmaceuticals, Inc., priority 2005, published 2006).

Key:
SK-N-AS = experiment: MTT cytotoxicity assay (% kill), SK-N-AS; assay type: cell-based, human; conditions: 1.0 μg/mL, MTT after five days
Procedure: (§1) The following human tumor cell lines were obtained and cultured in sextuplicate microwells at 37° C. and 5% CO2 in humidified air and in 10% FBS in Eagles MEM: SK—N—FI, SK—N-AS, LS-174T, WiDr, HuTu-80, MCF7, NCI-AR, MES-Sar, and PL-45. Cells from each cell line were separately treated with an amount of one of the compounds of Formula I, II, or III (see Table 1). Cells were exposed to each compound (0.1 μg/mL or 1.0 μg/mL) for one hour or 24 hours, rinsed with drug-free media, and incubated for an additional five days. The number of viable cells after five days was measured using an MTT (3-(4,5-dimethylthiazol-2-yl)-2,5-diphenyltetrazolium bromide) assay (see, e.g., Mosmann, J. Immunol. Methods, 65(1-2), 55-63 (1983)).
(§2) The cytotoxicity of each drug was determined and expressed as the percent of cells killed (“% kill”).

LS-174T = experiment: MTT cytotoxicity assay (% kill), LS-174T; assay type: cell-based, human; conditions: 1.0 μg/mL, MTT after five days
Procedure: as §1, §2

[1] = test system: Colon 38 (murine colon adenocarcinoma); experiment: Disk diffusion assay, zone of inhibition, Colon 38; zone differentials, potency and product; assay type: cell-based; design: key to C38ΔL1210 / C38ΔCFU: difference of zone of inhibition values, in zone units; conditions: for Sum: C38ΔL1210 plus C38ΔCFU; for C38ΔL1210 / C38ΔCFU: difference between zone of inhibition values; for C38ΔL1210: Colon38 vs L1210 leukemia; for C38ΔCFU: Colon38 vs normal cell CFU-GM; for Product: potency multiplied by zone differentials
Procedure: A disk diffusion assay was performed to define the differential cell killing ability of 15-O-(3′-hydroxy-3′-isopropyl-4′-methylpentanoyl)bruceolide. Seven cell types were assayed: L1210 (ATCC CCL-219) (murine leukemia), CCRF-CEM (ATCC CCL-119) (human leukemia), Colon 38 (murine colon adenocarcinoma), HCT116 (ATCC CCL-247) (human colorectal carcinoma), H125 (human lung carcinoma). The murine and human granulocyte/macrophage progenitor cell line (CFU-GM), served as controls.
Colon 38 cells (about 1 gram) were cut into small fragments in 15 mL of Hank's Balanced Salt Solution (HBSS) over a 100-mesh sieve and gently forced through by the scissors with HBSS constantly perfusing the sieve. The resulting material was then drawn into and out of a 5 mL syringe without a needle to further disperse the cell clumps. The cell solution was diluted and plated in 0.3% agarose in DMEM plus 10% heat-inactivated Bovine Calf Serum (BCS). For plating of all of the cell types (except controls), the 60 mm plates were first prepared with a hard agar bottom layer (0.6% agar in RPMI-1640 plus 15% BCS).
A 15 μl sample of each compound was dropped onto a 6.5 mm disk (Baxter filter disks). The disks were allowed to dry overnight and then placed close to the edge of a petri dish. Depending upon the cell type, the dishes were incubated for 7 to 10 days, and examined by an inverted stereo-microscope (10×) for measurement of the zone of inhibition. The zone of inhibition was measured from the edge of the filter disk to the beginning of normal-sized colony formation. The diameter of the filter disk, 6.5 mm, was arbitrarily taken as a zone of 200 units. Compounds that were selective for killing solid tumors, as compared to leukemia or normal cells (“solid tumor selective”) were defined as those compounds which produced a difference in zones between solid tumor cells and either normal or leukemia cells of at least 250 units. The results of this analysis are set forth in Table 4, which illustrates the relative diameters of the zones of inhibition by various drugs on the growth of the respective cell types at various drug dilutions.
The degree of differential sensitivity of several inventive compounds was compared with respect to the Colon38 cell line, the L1210 cell line, and the control CFU-GM cell lines. The degree of differential sensitivity was estimated by calculating the difference between the zone of inhibition values, as determined in Example 6, for the solid tumor compared to either the leukemia (C38ΔL1210) or normal cell (C38ΔCFU).
The potency of each of several inventive compounds was determined by identifying the dilution required to yield an average zone of inhibition of 500 units for the Colon38 cell type. Then the potency and the zone differentials were multiplied to define a “product” (see Table 5), which can be used to rank the compounds tested for their potential for further development; the greater the product value the greater the probability of useful chemotherapeutic utility.

| Structure (SMILES) | % Kill, SK-N-AS (SK-N-AS; 1 h exposure) | % Kill, SK-N-AS (SK-N-AS; 24 h exposure) | % Kill, LS-174T (LS-174T; 1 h exposure) | % Kill, LS-174T (LS-174T; 24 h exposure) | Sum [1] | C38ΔL1210 [1] | C38ΔCFU [1] | Product [1] |
| --- | --- | --- | --- | --- | --- | --- | --- | --- |
| CCCCCCCCC=CCCCCCCCC(=O)OC1C(=O)OC2CC3C(C)=C(O)C(=O)CC3(C)C3C(O)C(O)C4(C(=O)OC)OCC23C14 (stereo not drawn) [15-O-(cis-9′-octadecenoyl)-bruceolide] | 0% | 0% | 4% | 13% |  |  |  |  |
| CCC(=CC(=O)O[C@H]1C(=O)O[C@@H]2C[C@H]3C(C)=C(O)C(=O)C[C@]3(C)[C@H]3[C@@H](O)[C@H](O)[C@@]4(C(=O)OC)OC[C@]32[C@@H]14)CC [15-O-(3′-ethyl-2′-pentene-oyl)-brucelide] | 0% | 66% | 24% | 64% |  |  |  |  |
| COC(=O)C12OCC34C(CC5C(C)=C(O)C(=O)CC5(C)C3C(O)C1O)OC(=O)C(OC(=O)C=Cc1ccccc1)C24 (stereo not drawn) [15-O-cinnamyl-bruceolide] | 0% | 61% | 16% | 64% |  |  |  |  |
| CCC(O)(CC)CC(=O)OC1C(=O)OC2CC3C(C)=C(O)C(=O)CC3(C)C3C(O)C(O)C4(C(=O)OC)OCC23C14 (stereo not drawn) [15-O-(3′-ethyl-3′-hydroxypentanoyl)-bruceolide] | 6% | 71% | 10% | 50% | 850 | 350 | 500 | 3400 |
| COC(=O)C12OCC34C(CC5C(C)=C(O)C(=O)CC5(C)C3C(O)C1O)OC(=O)C(OC(=O)OCC1COC(C)(C)O1)C24 (stereo not drawn) [15-O-(solketyloxycarbonyl)-bruceolide] | 0% | 28% |  |  | 950 | 400 | 550 | 1900 |
| COC(=O)C12OCC34C(CC5C(C)=C(O)C(=O)CC5(C)C3C(O)C1O)OC(=O)C(OC(=O)C=C1CCCC1)C24 (stereo not drawn) [15-O-(cyclopentylideneacetyl)-bruceolide] | 0% | 50% | 0% | 50% | 800 | 350 | 450 | 4000 |
| COC(=O)C12OCC34C(CC5C(C)=C(O)C(=O)CC5(C)C3C(O)C1OC(=O)OCC1COC(C)(C)O1)OC(=O)C(OC(=O)OCC1COC(C)(C)O1)C24 (stereo not drawn) [12,15-O,O-bis(Solketyloxycarbonyl)-bruceolide] | 3% | 5% |  |  | 1000 | 400 | 600 | 2000 |
| COC(=O)C12OCC34C(CC5C(C)=C(O)C(=O)CC5(C)C3C(O)C1O)OC(=O)C(OC(=O)CC(C)(C)O)C24 (stereo not drawn) [15-O-(3′-hydroxy-3′-methylbutanoyl)-bruceolide] |  |  | 29% | 64% | 950 | 400 | 550 | 2850 |
| COC(=O)C12OCC34C(CC5C(C)=C(O)C(=O)CC5(C)C3C(O)C1O)OC(=O)C(OC(=O)Cc1ccccc1)C24 (stereo not drawn) [15-O-phenylacetyl bruceolide] | 0% | 38% | 20% | 61% | 1000 | 500 | 500 | 4000 |
| COC(=O)[C@@]12OC[C@]34[C@H]([C@@H](O)[C@@H]1O)[C@@]1(C)CC(=O)C(O)=C(C)[C@@H]1C[C@H]3OC(=O)[C@H](OC(=O)CC(C)(C)C)[C@@H]24 [15-O-(3′,3′-dimethylbutanoyl)-bruceolide] | 0% | 62% | 7% | 60% | 800 | 450 | 350 | 3200 |
| COC(=O)C12OCC34C(CC5C(C)=C(O)C(=O)CC5(C)C3C(O)C1O)OC(=O)C(OC(=O)C1=CCCC1)C24 (stereo not drawn) [15-O-(1′-cyclopentenoyl)-bruceolide] | 0% | 0% | 0% | 8% | 750 | 350 | 400 | 750 |
| C=CCOC(=O)OC1C(=O)OC2CC3C(C)=C(O)C(=O)CC3(C)C3C(O)C(OC(=O)OCC=C)C4(C(=O)OC)OCC23C14 (stereo not drawn) [12,15-O,O-bis-(allyloxycarbonyl)-bruceolide] | 0% | 2% |  |  | 650 | 300 | 350 | 650 |
| COC(=O)[C@@]12OC[C@]34[C@H]([C@@H](O)[C@@H]1O)[C@@]1(C)CC(=O)C(O)=C(C)[C@@H]1C[C@H]3OC(=O)[C@H](OC(=O)CC1(O)CCCC1)[C@@H]24 [15-O-[(1′-hydroxycyclopentyl)-acetyl]-bruceolide] |  |  | 36% | 65% | 1300 | 600 | 700 | 5200 |
| COC(=O)[C@@]12OC[C@]34[C@H]([C@@H](O)[C@@H]1O)[C@@]1(C)CC(=O)C(O)=C(C)[C@@H]1C[C@H]3OC(=O)[C@H](OC(=O)C=C1CCCCC1)[C@@H]24 [15-O-(cyclohexylideneacetyl)-bruceolide] |  |  | 13% | 63% | 700 | 350 | 350 | 2800 |
| COC(=O)C12OCC34C(CC5C(C)=C(O)C(=O)CC5(C)C3C(O)C1OC(=O)C=C(C)C(C)C)OC(=O)C(OC(=O)C=C(C)C(C)C)C24 (stereo not drawn) [12-O-(3,4-dimethyl-2-pentenoyl)-bruceantin] | 0% | 0% |  |  |  |  |  |  |
